Where a name gives a salt, the structure may show the parent alone.
Assays:
[1] = tested on: HIV-1 BA-L; experiment: Inhibitory effect on HIV-1 infection to MAGI-CCR5 cell; format: cell-based; settings: Human immunodeficiency virus 1, BAL, 48 h; 0.064 μM Test Compound medium; MAGI-CCR5 cells; 300 PFU HIV-1 BA-L; 2 days; blue cell count
Protocol: The plasmid where β-galactosidase gene was ligated downstream of HIV-1 LTR was introduced into CD4 positive HeLa cell, to which human CCR5 was further introduced to obtain transformant MAGI-CCR5. By using said transformant MAGI-CCR^5, degree of HIV-1 infection was calculated from β-galactosidase activity (blue color due to decomposition of 5-bromo-4-chloro-3-indolyl-β-D-galactopyranoside). Specifically, MAGI-CCR5 cells were suspended in DMEM medium containing 10% serum to prepare 5×10^4 cells/ml suspension. To each well of 96 well plate was inoculated 200 μl of the suspension, and the cells were cultivated at 37° C. overnight. The medium was removed by means of suction, and to the residue was added 100 μl of the above medium containing 0.064 μM of Test Compound and 100 μl of the above medium containing 300 PFU of HIV-1 BA-L cells. The cells were cultivated at 37° C. for 2 days. The medium was removed by means of suction. To the residue was added 200 μl of cell fixative (PBS containing 1% formaldehyde and 0.2% glutaraldehyde), and the mixture was allowed to stand at room temperature for 5 minutes and washed twice with PBS. […] The number of blue cells was counted by microscope and defined as the number of cells infected with HIV-1.

[2] = tested on: HIV-1 BA-L; experiment: Inhibitory effect on HIV-1 infection to human PBMC (p24 antigen ELISA); format: cell-based; settings: Human immunodeficiency virus 1, BAL, 0.032 μM Test Compound solution, p24 antigen in supernatant
Protocol: From normal person human peripheral blood mononuclear cells (PBMC) were separated, and the cells were stimulated with 10 μg/ml of PHA (Phytohemaglutinin) and 20 U/ml of interleukin-2 (IL-2) for 3 days. The cells were suspended in RPMI-1640 medium containing 20% serum to prepare 1×10 ^6/ml suspension. To the suspension were infected HIV-1 BA-L cells (20 ng as an amount of p24 antigen), and viruses were absorbed at 37° C. for 2 hours. The cells were washed and suspended in RPMI-1640 medium containing 20% serum and IL-2 20 U/ml to prepare 1×10^5/ml suspension. To the PBMC suspension was added the same amount of a solution which contains 0.032 μM of Test Compound, and the cells were cultivated at 37° C. in carbon dioxide gas incubator. The amount of p24 antigen in supernatant of the cultivated medium was determined by enzyme-linked immunosorbent assay (ELISA) and defined as degree of HIV-1 infection.

[3] = biological target: T1, human CCR5 (Homo sapiens, UniProt P51681); experiment: [125I]-RANTES binding inhibition on CHO/CCR5 cells; settings: Test Compound 1 μM, 100 pM [125I]-RANTES
T1 construct: expressed in transfected cells; plasmid pCKR5 = pcDNA3.1 with about 1.0 kb CCR5 insert
Protocol: CHO-K1 cells were grown in 750 ml of tissue culture flask (Becton Dickinson) using Ham's F12 medium (Nihon Pharmaceutical) containing 10% fetal calf serum (Life Tech Oriental) and took off with 0.5 g/L trypsin-0.2 g/L EDTA (Life Tech Oriental). The cells were washed with PBS (Life Tech Oriental), centrifuged (1000 rpm, 5 minutes), and suspended in PBS. With using Gene Pulser (Bio-Rad Laboratories), DNA was introduced into the cells under the conditions shown below. That is, to the cuvette of 0.4 cm gap were added 8×10^6 cells and 10 μg of plasmid pCKR5 for expression of human CCR5, and electroporation was carried out under 0.25 kV of voltage and 960 μF. of capacitance. The cells where transferred into Ham's F12 medium (Nihon Pharmaceutical) containing 10% fetal calf serum, and cultivated for 24 hours. The cells were again took off and centrifuged, and suspended in Ham's F12 medium (Nihon Pharmaceutical) containing 10% fetal calf serum and 500 μg/ml of geneticin (Life Tech Oriental). […] Radioactivity was determined with γ-counter to select CHO/CCR5 cells which specifically bind to the ligand.
The CHO/CCR5 were inoculated on 96 well microplate (5×10^4 cells/well) and cultivated for 24 hours. […] Radio-activity was determined with TopCount Micro Scintillation Counter (Packard Instrument, Inc.). […]

T1 sequence (P51681 whole entry): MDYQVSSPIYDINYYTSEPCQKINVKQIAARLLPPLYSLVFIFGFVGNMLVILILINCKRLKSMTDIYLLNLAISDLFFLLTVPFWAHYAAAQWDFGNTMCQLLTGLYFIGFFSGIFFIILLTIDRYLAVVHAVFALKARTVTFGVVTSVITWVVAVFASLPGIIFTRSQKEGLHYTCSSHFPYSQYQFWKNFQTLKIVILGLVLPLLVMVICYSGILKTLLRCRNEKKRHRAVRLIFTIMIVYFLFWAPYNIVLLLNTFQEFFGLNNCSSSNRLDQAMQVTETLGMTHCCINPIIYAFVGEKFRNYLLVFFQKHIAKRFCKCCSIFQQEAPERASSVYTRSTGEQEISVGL

CCOc1ccc(-c2ccc3c(c2)C=C(C(=O)Nc2ccc(C[N+](C)(C)C4CCOCC4)cc2)CCO3)cc1 (as salt: chloride) [Compound 3, N-(4-(((7-(4-ethoxyphenyl)-2,3-dihydro-1-benzoxepin-4-yl)carbonyl)amino)benzyl)-N,N-dimethyl-N-(4-tetrahydropyranyl)ammonium chloride]
melting point: 200 to 204 °C

Cc1ccc(-c2ccc3c(c2)C=C(C(=O)Nc2ccc(C[N+](C)(C)C4CCOCC4)cc2)CCC3)cc1 [Compound 1, N,N-dimethyl-N-(4-(((2-(4-methylphenyl)-6,7-dihydro-5H-benzocyclohepten-8-yl)carbonyl)amino)benzyl)-N-(4-tetrahydropyranyl)ammonium chloride]
inhibition at 0.064 µM [1]: 100% | inhibition at 0.032 µM [2]: 74%

Cc1ccc(-c2ccc3c(c2)C=C(C(=O)Nc2ccc(C[N+](C)(C)C4CCC(=O)CC4)cc2)CCO3)cc1.[Cl-] [Compound 2]
Inhibition Rate (%) to CCR5 binding [3]: 96%
